Laboratory results reported in PubChem BioAssay (NCI).
Several values for one entry are separate records, joined by “and”; a condition that tells them apart may be missing. Identical values can stand only once.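 Exposure lasted 48 hours, with cells grown in 96-well plates and compounds tested at five concentrations. GI50 = concentration required for 50% inhibition of growth. At the TGI there is no net growth.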

How the values were obtained:
Assay in all cases: NCI anticancer screen, dose series, 48 h
A549 NSCLC = tested on: A549 NSCLC
LOX IMVI melanoma = tested on: LOX IMVI melanoma
M14 melanoma = tested on: M14 melanoma
OVCAR-4 ovarian = tested on: OVCAR-4 ovarian
RXF 393 renal = tested on: RXF 393 renal
SR leukemia = tested on: SR leukemia
MOLT-4 leukemia = tested on: MOLT-4 leukemia
NCI-H226 lung = tested on: NCI-H226 lung
HS 578T breast = tested on: HS 578T breast
T-47D breast = tested on: T-47D breast

Structure (SMILES)	TGI (A549 NSCLC)	TGI (LOX IMVI melanoma)	TGI (M14 melanoma)	TGI (OVCAR-4 ovarian)	TGI (RXF 393 renal)	TGI (SR leukemia)	TGI (MOLT-4 leukemia)	TGI (NCI-H226 lung)	GI50 (A549 NSCLC)	GI50 (HS 578T breast)	TGI (HS 578T breast)	GI50 (LOX IMVI melanoma)	GI50 (M14 melanoma)	GI50 (NCI-H226 lung)	GI50 (OVCAR-4 ovarian)	GI50 (RXF 393 renal)	GI50 (SR leukemia)	GI50 (T-47D breast)	TGI (T-47D breast)	GI50 (MOLT-4 leukemia)
CCOC(=O)C1=C(C)N(NC(=O)Nc2ccccc2)C2(N)N(NC(=O)Nc3ccccc3)C(C)=C(C(=O)OCC)C12C(=O)OCC (configuration not stated)	> 100 µM	> 100 µM	> 100 µM	> 100 µM	22.4 µM	> 100 µM														
CN1C(=O)C(=O)N2c3ccc(Cl)cc3C3(c4ccccc4)N=CC12O3 (configuration not stated)	23.1 µM		15 µM	8.43 µM	6.34 µM		7.56 µM	26.8 µM												
O=C(/C=C/c1c(O)ccc2ccccc12)c1ccc([N+](=O)[O-])cc1	> 100 µM	33.4 µM	41.6 µM	36 µM	61.8 µM	> 100 µM	> 90.4 µM	> 100 µM												
O=C(Nc1nc(=S)[nH][nH]1)C(=O)C(C(=O)c1ccc2ccccc2c1)C1OC(=O)c2ccccc21 (configuration not stated)	> 100 µM	39 µM	40.9 µM	58.2 µM	26.8 µM		21.1 µM	19.8 µM												
O=C(NC1C=CCC2C(=O)N(c3ccccc3)C(=O)C12)OCc1ccccc1 (configuration not stated)	> 100 µM	> 100 µM	> 100 µM	> 100 µM	> 100 µM	> 100 µM	> 100 µM	> 100 µM												
O=C(O)CSc1n[nH]c(-c2ccccc2O)n1	> 100 µM	> 100 µM	> 100 µM	> 100 µM	> 100 µM	> 100 µM	> 100 µM	> 100 µM												
Fc1cc(-c2nnc3n2N=C(c2ccc(Cl)cc2)CS3)c(Cl)cc1Cl	41.8 µM	3.86 µM	17.2 µM	32.8 µM	14.7 µM	> 100 µM		40.6 µM	18.7 µM	22.7 µM	51.5 µM	1.77 µM	4.87 µM	17.8 µM	7.91 µM	5.57 µM	0.49 µM	2.76 µM	20 µM	
CC(=O)[O-].CC(=O)[O-].O=C(N/N=C/c1cc(Cl)cc(Cl)c1O)c1ccncc1.[Cu+2]	> 100 µM	> 100 µM	> 100 µM		> 100 µM	> 100 µM	> 100 µM	> 100 µM												
Cc1cc2c(cc1C)[n+](=O)c(C(=O)c1ccccc1)c(C(F)F)n2[O-]	27.4 µM	> 100 µM	> 100 µM	> 100 µM		98.4 µM	43.1 µM	72.9 µM	4.9 µM	32 µM	> 100 µM	10.3 µM	16.9 µM	25.5 µM	14.2 µM		4.39 µM	30.3 µM	> 100 µM	8.02 µM
Cc1ccc(NC2=C3CCCCC3OC2=O)cc1 (configuration not stated)	> 100 µM		> 100 µM	> 100 µM	> 100 µM	> 100 µM	86 µM	> 100 µM	> 100 µM	> 100 µM	> 100 µM		> 100 µM	87.1 µM	43.2 µM	> 100 µM	39.5 µM	29.3 µM	> 100 µM	19.1 µM
CCCCCCCCCCCCNC(=S)OC	35 µM	28.7 µM	32.1 µM	38.6 µM	25.7 µM	17.9 µM	9.43 µM													
Cc1ccc(S(=O)(=O)N2CCC2c2ccccc2)cc1 (configuration not stated)	> 100 µM	> 100 µM	> 100 µM	> 100 µM	> 100 µM		> 100 µM	> 100 µM												
COc1ccc2c(c1)[n+]([O-])c(C(N)=O)c(N)[n+]2[O-]	> 100 µM		> 100 µM	> 100 µM		> 100 µM		> 100 µM												
CN(C)CC(O)c1ccc(/C=C/c2ccc(Cl)cc2)cc1 (configuration not stated)	3.38 µM	2.98 µM	3.11 µM	6.58 µM	16.2 µM			27.3 µM	1.86 µM	1.49 µM	3.21 µM	1.63 µM	1.67 µM	11.9 µM	2.49 µM	3.89 µM		3.76 µM	16.6 µM	
C[C@@]1(O)CC[C@]2(C)C3CCCC3[C@H]12 (some centres not stated)	> 100 µM	> 100 µM	> 100 µM	> 100 µM	> 100 µM	> 100 µM	> 100 µM	> 100 µM												
CN1CCN(c2ccc(Nc3ncc(Cl)c(NC[C@@H]4CCCO4)n3)cc2)CC1	5.5 µM	6.83 µM	11.2 µM	81.7 µM	3.42 µM	6.03 µM		6.47 µM	1.05 µM	1.32 µM	11.2 µM	0.826 µM	1.13 µM	0.266 µM	3.03 µM	0.746 µM	0.513 µM	5.8 µM	58.3 µM	
CN(C)C(=S)/N=c1\ssc(=S)n1C1CCCCC1	> 100 µM		36.3 µM	> 100 µM	> 100 µM	63.1 µM	52.3 µM	> 100 µM												
NC(N)=NS(=O)(=O)c1ccc(N=Nc2c(O)c(C(=O)O)cc3ccccc23)cc1	> 100 µM		> 100 µM	> 100 µM	> 100 µM	> 100 µM	> 100 µM	> 100 µM			> 100 µM								> 100 µM	
N#CC(C(=O)CCC(=O)Nc1ccc(Cl)c(Cl)c1)c1ccccc1 (configuration not stated)	> 100 µM		> 100 µM	> 100 µM	> 100 µM		> 100 µM	> 100 µM												
COc1ccc(/C=C/COC(C)=O)cc1OC	> 100 µM			> 100 µM	> 100 µM	> 100 µM	> 100 µM	> 100 µM												
O=S1C(=c2ccc(=C3Sc4ccccc4S3)cc2)Sc2ccccc21 (configuration not stated)	35.5 µM	32.2 µM	29 µM	> 100 µM	> 57.7 µM	> 100 µM	> 100 µM	34 µM												
Cc1[cH-]c(=O)n(-c2ccccc2)n1.[Au+].[Au].c1ccc([PH+](c2ccccc2)c2ccccc2)cc1.c1ccc([PH+](c2ccccc2)c2ccccc2)cc1	> 100 µM	46.8 µM	41.5 µM	> 100 µM	3.32 µM and 28.5 µM	> 100 µM	> 100 µM	77.8 µM	46.8 µM			18 µM	9.12 µM and 9.46 µM	26.7 µM	32.2 µM	0.756 µM and 6.89 µM	26.4 µM			36.6 µM
